What was measured:
MB model of glaucoma = experiment: IOP time course after a single eye drop in the MB model of glaucoma; format: in vivo, mouse
Description: Specifically, microbeads (MBs) were injected into the anterior chamber of a mouse eye as described in Example 2 with PBS-injected eyes used as controls. Compound 1 (10 mg/kg body weight) (or PBS vehicle) was injected intraperitoneally (IP). […] IOP was measured in mice between 10:00 AM and 1:00 PM with the TonoLab rebound tonometer (Colonial Medical Supply, Franconia, NH/Tyolat, Helsinki, Finland). Mice were sedated with IP injection of Avertin with final amount calculated by weight (e.g., 0.5 ml for 21-24 g animals). Animals were placed on a jack stand platform and the tonolab was clamped on a ring stand and centered onto the mid-cornea. During measurements animal were neither restrained nor touched. Each eye was measured twenty consecutive times, the highest and lowest values were discarded and the values were averaged.
FIG. 9 illustrates the short-term effects of a single dose of Compound 1 (eye drop) in the MB model of glaucoma. IOP was measured as described in Example 3 at the indicated time points after receiving a drop of Compound 1. Compound 1 reduced IOP beginning at 1 hour after dosing and continued through 6 hours after dosing.
FIG. 10 illustrates a time course of Compounds 1, 2, 5 and Compound 2-HCl as well as a positive control compound, timolol, with regard to inhibition of IOP. The experiment was conducted as described in Example 9. Each of the TRPV4 antagonists reduced IOP with a similar time course. Specifically, Compounds 1, 2, 5 and Compound 2-HCl reduced IOP for at least 6 hours after dosing.
FIG. 11 illustrates a time course of Compound 2-HCl activity. The experiment was conducted as described in Example 9. […] 2
FIG. 12 illustrates a comparison of the time course of Compound 2-HCl and Compound 5. The experiment was conducted as described in Example 9.

TRPV4 [1] = target: T1, TRPV4 (Homo sapiens, UniProt Q9HBA0); experiment: Calcium imaging (fura-2) in human trabecular meshwork cells; format: cell-based; details: bath application 100 nM, human TM cells, room temperature
T1 construct: endogenous in cells; host or cells: primary human trabecular meshwork cells from trabeculectomy tissue
T1 sequence (Q9HBA0 whole entry): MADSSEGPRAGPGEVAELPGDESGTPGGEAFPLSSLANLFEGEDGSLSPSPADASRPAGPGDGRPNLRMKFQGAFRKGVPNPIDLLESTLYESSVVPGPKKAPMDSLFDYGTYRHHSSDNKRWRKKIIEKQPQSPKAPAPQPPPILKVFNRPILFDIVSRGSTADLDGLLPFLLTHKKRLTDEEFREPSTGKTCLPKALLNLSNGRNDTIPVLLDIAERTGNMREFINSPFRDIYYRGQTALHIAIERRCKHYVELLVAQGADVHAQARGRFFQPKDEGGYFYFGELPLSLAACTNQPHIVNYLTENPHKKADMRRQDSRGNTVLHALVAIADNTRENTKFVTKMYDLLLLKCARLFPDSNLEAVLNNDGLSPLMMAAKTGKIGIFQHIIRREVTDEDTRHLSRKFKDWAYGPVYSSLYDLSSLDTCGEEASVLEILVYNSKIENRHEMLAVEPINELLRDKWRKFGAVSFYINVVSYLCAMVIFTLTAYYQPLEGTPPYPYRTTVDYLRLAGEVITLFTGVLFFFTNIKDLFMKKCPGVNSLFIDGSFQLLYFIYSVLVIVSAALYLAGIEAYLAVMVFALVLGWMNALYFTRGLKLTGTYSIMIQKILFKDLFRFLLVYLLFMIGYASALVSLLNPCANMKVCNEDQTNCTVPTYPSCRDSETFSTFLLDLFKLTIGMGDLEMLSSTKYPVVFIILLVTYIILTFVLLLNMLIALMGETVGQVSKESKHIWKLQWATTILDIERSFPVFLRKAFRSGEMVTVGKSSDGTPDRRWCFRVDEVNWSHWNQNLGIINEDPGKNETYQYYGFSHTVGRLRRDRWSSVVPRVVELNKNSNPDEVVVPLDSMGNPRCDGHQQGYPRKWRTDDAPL
Description: Pieces of tissue were isolated from a trabeculectomy. Trabecular meshwork cells (TM) were kept in cold L15 medium and then loaded with Fura-2 (10 μm) for 1 hour. Fibroblast-shaped cells were imaged from a TM chunk (˜500 μm×500 μm) with a 40× water immersion objective. The sampling rate was at 6 second intervals. Krebs Ringer Bicarbonate Recording buffer (7.4, 284 mOsm) was prepared as reported by Anthony et al., 1998, IOVS; Prostaglandin F2α receptors in the human trabecular meshwork.
Calcium imaging was performed on TM cells isolated from human patients. In brief, dissociated human TM cells embedded within the tissue were dissociated and plated on concanavalin A-coated (0.2 mg/ml; Sigma) coverslips, loaded with fura-2 AM ([…]; Invitrogen Life Technologies) for 15 min-1 hour and washed for 10 min in dye-free L-15 medium. […] Fluorescence emission was high-pass filtered at 510 nm and captured with cooled digital CCD cameras (HQ2, Photometrics). […] Fluorescence imaging was performed on regions of interest (ROIs) encompassing the TM cell somata, typically at 3×3 binning. Background fluorescence was measured in similarly sized ROIs in neighboring areas devoid of cells. After sequential image acquisition (0.167-0.5 Hz) of cell fluorescence at 340/380 nm, the background was subtracted. […]

retinal ganglion cells [2] = experiment: In vivo intraocular injection of TRPV4 agonist GSK, NeuN+ RGC count; details: 100-300 nM injected intraocularly, retinas isolated after 48 hours
Description: In this experiment, GSK (100-300 nM) was injected intraocularly with a Hamilton syringe. Retinas were isolated after 48 hours, fixed and labeled with the RGC marker antibody NeuN. NeuN-immunopositive somata in the ganglion cell layer, shown in the panel on the right, were counted. The bar graph represents quantification of NeuN^+ cells in the indicated experimental groups.

retinal ganglion cells [3] = experiment: TUNEL assay of apoptotic cell death in retina; format: cell-based
Description: Terminal deoxynucleotidyl transferase-mediated dUTP-biotin nick end labeling (TUNEL) is a common method for detecting fragmentation that results from apoptotic signaling cascades. Retinas were embedded, cryosectioned, and processed for the TUNEL assay following the protocol by Gavrieli et al. (1992). After 30 min. rehydration in 70% ethanol, 2×5 min. rinses in PBS and 1% Triton-X in 1% citrate buffer (pH 7.3), the slides were subjected to a final rinse in PBS. Slides were then incubated for 30 min. in the reaction buffer (30 mM Trizma-HCl, 140 mM Na^+ cacodylate, 1.0 mM CaCl2, 0.2% Triton X-100, pH 7.2). Positive controls were treated with DNAse I (Roche Diagnostics; Branford, Conn.; 10 U/ml) in the reaction buffer. Next, slides were treated for 1 hour with 0.03 units/pi terminal transferase and 4 μM biotin-16-dUTP (Roche Diagnostics). The reaction was terminated in 30 mM Na+ citrate, 300 mM NaCl and 0.2% Triton X-100 in PBS (5 min.) and rinsed in PBS (2×5 min), exposed to 1% bovine serum albumin in PBS for 20 min and rinsed. Apoptotic cells were visualized with a confocal microscope (Zeiss LSM510) and categorized by size. […] This was blocked by RuR and by the TRPV4 antagonist Compound 1.

TRPV4 [4] = target: T2, TRPV4 (Mus musculus, UniProt Q9EPK8); experiment: TRPV4 agonist GSK-evoked [Ca++]i in retinal Müller glial cells; format: cell-based; design: endogenous in cells; host or cells: retinal Müller glial cells
T2 sequence (Q9EPK8 whole entry): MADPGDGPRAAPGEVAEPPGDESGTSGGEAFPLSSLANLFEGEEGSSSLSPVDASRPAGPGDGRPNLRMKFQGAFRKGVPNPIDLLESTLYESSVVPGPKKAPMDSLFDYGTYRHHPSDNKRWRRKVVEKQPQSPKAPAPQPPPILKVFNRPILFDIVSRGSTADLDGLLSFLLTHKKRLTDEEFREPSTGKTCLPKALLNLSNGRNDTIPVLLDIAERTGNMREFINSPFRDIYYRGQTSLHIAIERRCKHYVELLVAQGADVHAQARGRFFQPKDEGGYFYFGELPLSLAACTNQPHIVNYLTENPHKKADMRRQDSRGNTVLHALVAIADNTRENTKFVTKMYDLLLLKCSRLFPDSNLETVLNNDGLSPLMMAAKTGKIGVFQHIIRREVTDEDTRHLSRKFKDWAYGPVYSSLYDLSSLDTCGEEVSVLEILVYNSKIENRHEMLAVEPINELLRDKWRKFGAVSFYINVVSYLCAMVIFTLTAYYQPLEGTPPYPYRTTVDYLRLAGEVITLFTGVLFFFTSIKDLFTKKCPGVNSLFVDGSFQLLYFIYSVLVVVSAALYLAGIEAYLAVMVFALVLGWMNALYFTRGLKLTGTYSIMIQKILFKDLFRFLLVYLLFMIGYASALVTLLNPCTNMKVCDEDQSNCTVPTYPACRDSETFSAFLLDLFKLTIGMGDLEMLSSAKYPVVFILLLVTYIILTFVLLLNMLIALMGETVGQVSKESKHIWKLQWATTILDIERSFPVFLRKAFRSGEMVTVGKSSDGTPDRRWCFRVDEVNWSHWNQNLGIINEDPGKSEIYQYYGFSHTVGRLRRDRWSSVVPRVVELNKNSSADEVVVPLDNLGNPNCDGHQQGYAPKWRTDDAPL

TRPV4 [5] = target: T2, TRPV4; experiment: AGB cation influx into retinal cells (anti-AGB antibody); format: cell-based; design: these two cell types express TRPV4 channels in the mouse retina; from tissue; host or cells: mouse retina; details: mouse retina
Description: FIG. 16 illustrates the effect of the TRPV4 agonist GSK on cation influx into mouse retinal cells of the mouse retina. The influx was determined using the anti-AGB antibody, as described by Marc RE (J Comp Neurol 407(1): 47-64, 1999). AGB is a membrane permeant cation that can flow through most known cation channels. Using an anti-AGB antibody, it can be determined where the cation flux occurs and, therefore, which cells are activated.

Müller cells = experiment: Arachidonic acid-induced [Ca2+]i in Müller cells; format: cell-based; details: 10 μM, Müller cells
Description: This response is blocked by Compound 1 (1 μM).

[6] = system: retinal neurons (RGCs) and glia (Müller cells); experiment: Hypotonic stimuli: cell swelling (change in cell area) and [Ca++]i; format: cell-based; details: osmolarity lowered from 300 mOsm to 190 mOsm
From the text: FIG. 18A illustrates the effect of hypotonic stimuli on cell swelling as measured by change in cell area. Hypotonic stimuli were generated by replacing extracellular sodium levels to lower osmolarity from 300 mOsm to 190 mOsm.

CC(C)(C)NC[C@H](O)COc1nsnc1N1CCOCC1 [timolol, reference compound]
inhibition of IOP, curve relative to the exemplary TRPV4 antagonists (MB model of glaucoma; positive control, eye drop): left-shifted dose-response curve

CC(C)C[C@H](NC(=O)c1cc2ccccc2s1)C(=O)N1CCN(C(=O)[C@H](CO)NS(=O)(=O)c2ccc(Cl)cc2Cl)CC1 [GSK1016790A, reference compound]
340/380 fluorescence ratio (intracellular calcium concentration [Ca++]i) (TRPV4 [1]): increased 340/380 fluorescence ratio | number of retinal ganglion cells (NeuN+ somata), agonist effect (retinal ganglion cells [2]): substantially reduces the number of retinal ganglion cells | death of retinal ganglion cells (increased TUNEL staining), agonist effect (retinal ganglion cells [3]; 100 nM): induced death of retinal ganglion cells | intracellular calcium concentration [Ca++]i, agonist effect (TRPV4 [4]): evokes sustained increases in intracellular calcium concentration | number of AGB+ cells (cation influx), agonist effect (TRPV4 [5]): increased the number of AGB^+ retinal ganglion cells and Müller glial cells

CCCCC/C=C\C/C=C\C/C=C\C/C=C\CCCC(=O)O [arachidonic acid, reference compound]
[Ca2+]i response (Müller cells): increase in [Ca2+]i

Cc1c(C(=O)Nc2cccc(C(=O)OC(C)C)c2)cc(-c2ccccc2)n1CCCN1CCOCC1.Cl [Compound 2-HCl, iso-propyl 3-(2-methyl-1-(3-morpholinopropyl)-5-phenyl-1H-pyrrole-3-carboxamido)benzoate hydrochloride]
time of maximal inhibition of IOP after dosing (MB model of glaucoma; single dose eye drop): 6 h | time until IOP reached pre-dose levels (MB model of glaucoma; single dose eye drop, post-dosing): 33 h

N.N.N.N.N.N.N.N.N.N.N.N.N.N.[Cl-].[Cl-].[Cl-].[Cl-].[Cl-].[Cl-].[O-2].[O-2].[Ru+3].[Ru+3].[Ru+4] [Ruthenium Red]
apoptotic cell death (TUNEL) induced by hypotonic swelling (retinal ganglion cells [3]; 190 mOsm saline, Compound 1 1 uM, RuR 10 μM): block apoptotic cell death | apoptotic cell death (TUNEL) induced by the TRPV4 agonist GSK (retinal ganglion cells [3]; GSK 100 nM, Compound 1 1 uM, RuR 10 μM): block apoptotic cell death

CC(=O)OCOC(=O)CN(CC(=O)OCOC(C)=O)c1ccccc1OCCOc1ccccc1N(CC(=O)OCOC(C)=O)CC(=O)OCOC(C)=O [BAPTA-AM, reference compound]
cell swelling (change in cell area) [6]: significantly reduced
